Measured values: PubChem BioAssay (NCI)
Values joined by “and” are separate entries in the source; they are usually repeats but may differ in a detail not shown here. Identical values can stand only once.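 Cells were grown in 96-well plates and exposed to each compound for 48 hours at five concentrations; endpoints were interpolated linearly between bracketing concentrations, or set to the highest concentration if not reached. GI50: concentration for 50% inhibition of growth. TGI denotes the concentration required for complete inhibition of growth.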

What was measured:
Assay in all cases: NCI anticancer screen, dose series, 48 h
SNB-75 CNS = test system: SNB-75 CNS
MDA-MB-231 breast = test system: MDA-MB-231 breast
IGROV1 ovarian = test system: IGROV1 ovarian
A498 renal = test system: A498 renal
SN12C renal = test system: SN12C renal
SF-268 CNS = test system: SF-268 CNS
SF-295 CNS = test system: SF-295 CNS
A549 NSCLC = test system: A549 NSCLC

Row | SMILES | GI50 (SNB-75 CNS) [µM] | TGI (SNB-75 CNS) [µM] | GI50 (MDA-MB-231 breast) | TGI (MDA-MB-231 breast) [µM] | GI50 (IGROV1 ovarian) | TGI (IGROV1 ovarian) [µM] | GI50 (A498 renal) [µM] | TGI (A498 renal) [µM] | GI50 (SN12C renal) | TGI (SN12C renal) [µM] | GI50 (SF-268 CNS) [µM] | TGI (SF-268 CNS) [µM] | GI50 (SF-295 CNS) [µM] | TGI (SF-295 CNS) [µM] | GI50 (A549 NSCLC) | TGI (A549 NSCLC) [µM]
1 | Cc1cc(N/N=C/c2nc(-c3ccc(Br)cc3)oc2C)c2cc(Br)ccc2n1 | 2.17 | 6.66 | 2.95 µM | 10.1 | 4.55 µM | 20.2 | 16.5 | 53.2 | 2.1 µM | 5.36 | 6.89 | 46.2 | 17.3 | 32.6 | 2.2 µM | 5.2
2 | CN(CCCNC(=O)Cc1ccc2ccc3cccc4ccc1c2c34)CCCNc1cc(-c2ccc3ccccc3c2)nc2ccccc12 | 1.45 | 2.75 | 1.54 µM | 3.04 | 1.7 µM | 3.58 | 1.66 | 3.19 | 1.68 µM | 3.29 | 1.43 | 2.91 | – | – | 1.83 µM | 3.75
3 | COc1cc2c(cc1O)C1Cc3ccc(OC)c(O)c3C(C2)N1C (stereo not given) | – | – | – | > 100 | – | > 100 | – | > 100 | – | > 100 | – | > 100 | – | > 100 | – | > 100
4 | Cc1cc(C2CC(O)C(CO)O2)cc2c(=O)[nH]c(N)nc12 (stereo not given) | 81.3 | > 100 | > 100 µM | > 100 | 71 µM | > 100 | > 100 | > 100 | > 100 µM | > 100 | > 100 | > 100 | > 100 | > 100 | > 100 µM | > 100
5 | O=c1[nH]cnc2cccc(Cl)c12 | – | > 100 | – | > 100 | – | > 100 | – | > 100 | – | > 100 | – | > 100 | – | > 100 | – | > 100
6 | CC(C)OC(=O)NNc1cc(Cl)ccc1Cl | – | > 100 | – | > 100 | – | > 100 | – | 96.6 | – | > 100 | – | > 100 | – | > 100 | – | > 100
7 | CC(=O)/C=C/c1ccc(C#Cc2ccccc2)s1 | – | – | 15 µM | 28.2 | 18.3 µM | 32.2 | – | – | 17.1 µM | 31.4 | 17.4 | 48.9 | 19.1 | 42.7 | 15.1 µM | 28.5
8 | NC(CS/C(Cl)=C/Cl)C(=O)O (stereo not given) | > 75.9 | > 100 | > 100 µM | > 100 | > 100 µM | > 100 | 8.7 | 33.8 | 43.3 µM | > 100 | > 76.5 | > 100 | 3.17 | 12.3 | 1.69 µM | 6.98
9 | O=C(/C=C/c1cc(CN2CCOCC2)c(O)c2ncccc12)c1cc(CN2CCOCC2)c(O)c2ncccc12 | 0.0595 | 42.6 | 0.145 µM | > 100 | 0.0682 µM | > 66.6 | 0.246 | 18 | 0.0673 µM | > 100 | 0.0469 | > 100 | 0.0529 | > 36.4 | 0.0285 µM | > 100
10 | CC(C)S(=O)(=O)c1ccccc1Nc1nc(Nc2cccc(NC(=O)CN)c2)ncc1Cl | 0.0346 | 0.41 | 0.239 µM | 3.97 | 0.263 µM | 12.6 | < 0.0242 | 0.493 | 0.21 µM | 6.66 | 0.189 | 1.3 | < 0.0225 | 8.59 | 0.147 µM | 9.03
11 | COc1cc2ncn(-c3cc(OCCc4ccccc4)c(C(N)=O)s3)c2cc1OC | > 25 | > 25 | 24.6 µM | > 25 | > 25 µM | > 25 | 2.43 | > 22.3 | 24.9 µM | > 25 | > 25 | > 25 | > 25 | > 25 | > 25 µM | > 25
12 | Cc1c(C2=C(Br)C(=O)N(C)C2=O)c(=O)n(C)c(=O)n1C | – | > 100 | – | 65.3 | – | 36.5 | – | 82.9 | – | > 100 | – | > 100 | – | > 100 | – | > 100
13 | COc1ccc(C(=O)COc2cccc(/C=C3\Oc4ccc5ccccc5c4C3=O)c2)cc1 | 12.3 | 29 | 11.9 µM | 25.6 | – | – | 20.6 | 37.1 | 1.76 µM | 3.85 | 3.72 | 14 | 14.3 | 36.4 | 21.1 µM | 52.5
14 | N#C/C(=C/N1CCN(C(=O)c2ccco2)C1=S)C(=O)c1ccccc1 | 68.2 | > 100 | 13.7 µM | 40.8 | 19.4 µM | 70.7 | – | – | 8.64 µM | 25 | 31.2 | 93.3 | 43.6 | > 100 | 22 µM | 58.4
15 | Cc1cc[c-]cc1.Fc1c[c-]c(-c2ccccn2)c(F)c1.[Pt+2].c1ccc(P(C[PH+](c2ccccc2)c2ccccc2)c2ccccc2)cc1 | – | – | 2.6 µM | 8.47 | 2.11 µM | 12.2 | 2.04 | 6.11 | 2.4 µM | 10.1 | 2.9 | 13.5 | 2.56 | 10.2 | 1.43 µM | 12.1
16 | NC(N)=NCCCCCNc1noc(Cc2c[nH]c3cc(Br)ccc23)n1 | – | – | 8.05 µM | 30.2 | 4.55 µM | 19.4 | > 100 | > 100 | 3.87 µM | 18.8 | 3.54 | 27.8 | 17.8 | 56.6 | 14.2 µM | > 100
17 | COc1ccc2c(c1)[C@@]13CCCC[C@H]1[C@@H](C2)N(C)CC3=O | – | – | – | 36.4 | – | 32.8 | – | – | – | 50.4 | – | 35.8 | – | > 100 | – | 41
18 | CC(C)N=c1cc2n(-c3ccc(Cl)cc3)c3ccccc3nc-2cc1Nc1ccc(Cl)cc1 | 1.23 | 15.9 | 0.618 µM and 1.07 µM | > 50 | 0.586 µM and 0.296 µM | > 50 | – | – | 0.92 µM and 2.74 µM | > 100 | 1.73 | > 50 | 1.36 | > 50 | 1.85 µM and 1.84 µM | –
19 | CCOC(=O)c1c[nH]c2oc(/C=N/N3CC(CN4CCOCC4)OC3=O)cc2c1=O (stereo not given) | – | > 100 | – | > 100 | – | > 100 | – | – | – | > 100 | – | > 100 | – | > 100 | – | > 100
